Where “and” joins values, the source holds several entries; their conditions need not be identical. Identical values can stand only once.
Legend:
[1] = Franz cell vancomycin permeability, capsule vs direct dilution in donor well; conditions: 25 tissue samples from n=5 animals, control = direct dilution in donor well, p<0.05
Protocol: Both helical and smooth exteriors were assessed. […] Given inter-animal variability of tissue properties, a ratio of permeability induced by the capsule to the control condition was calculated using a matched-pair format per animal.

[2] = vancomycin permeability in isolated small intestine sections of anesthetized swine, mesenteric venous blood; conditions: 100 mg vancomycin, capsules vs sham control pills, p<0.001
From the text: In anesthetized swine, sections of the small intestine were isolated to serve as independent testing sites while controlling for animal-specific properties such as hydration status, peristaltic rate, blood pressure, and perfusion.

[3] = FITC-dextran uptake with capsule vs direct application
From the text: To assay the capability of the capsule to assist in the delivery of larger molecules, fluorescein isothiocyanate-(FITC) dextran having various molecular weights were delivered using the capsule, at various motor frequencies, and compared to direct application (controls).

[4] = oral insulin, background; cited from earlier work
[5] = oral insulin delivery via capsule or endoscopic spray in the small intestine, blood glucose and insulin monitoring; format: in vivo, swine
Protocol: Blood glucose and insulin concentrations were monitored for a 75-minute period with the drug delivery starting at 15 minutes.

CN[C@H](CC(C)C)C(=O)N[C@H]1C(=O)N[C@@H](CC(N)=O)C(=O)N[C@H]2C(=O)N[C@H]3C(=O)N[C@H](C(=O)N[C@H](C(=O)O)c4cc(O)cc(O)c4-c4cc3ccc4O)[C@H](O)c3ccc(c(Cl)c3)Oc3cc2cc(c3O[C@@H]2O[C@H](CO)[C@@H](O)[C@H](O)[C@H]2O[C@H]2C[C@](C)(N)[C@H](O)[C@H](C)O2)Oc2ccc(cc2Cl)[C@H]1O [vancomycin]
increase of vancomycin drug permeability with capsule delivery compared to controls [1]: over 10 fold | tissue permeability with capsules relative to control [2]: ≥ 20 times the control

fluorescein isothiocyanate-(FITC) dextran
uptake increase at 40 kDa and 70 kDa ([3]; molecular weights 40 kDa and 70 kDa): greatest increases | uptake with the capsule compared to direct application ([3]; molecular weights as high as 150 kDa, various motor frequencies): significantly increase uptake

insulin
oral bioavailability [4]: less than 2.5% | variance of blood glucose from baseline ([5]; 100 units insulin by endoscopic spray in the small intestine (control), n=5): 16.6 ± 17.3 mg/dL | average blood glucose reduction ([5]; 100 units insulin via the capsule, n=7 animals, 75-minute monitoring): 55.54 ± 16.1 mg/dL | uptake dynamics compared to subcutaneous or IV injection ([5]; capsule delivery of insulin): more gradual uptake | time to changes in plasma glucose levels ([5]; insulin via the capsule): ≤ 15 min | animals with hypoglycemia (blood glucose<20 mg/dL) necessitating dextrose infusion ([5]; insulin via the capsule, ensued at 60 minutes): three and 3 out of 7
